Test system: 138582-337-R-J1-PDC spheroids with HUVEC/MSC, viability
Test: Anticancer human tumor 138582-337-R-J1-PDC patient-derived Merkel cell tumor cell line growth inhibition [IpAb]
Conditions: for IC50: curve of first compound; for viability, T/C: stronger effect = lower value
How it was run: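 Combinations with ipatasertib or abemaciclib were tested on tumour spheroids holding HUVEC (25%) and MSC (15%) alongside 60% malignant cells. Top concentration was at or near clinical Cmax (10 microM if undefined), descending in half-log steps.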

[1] = second compound 0.01 µM, first compound 0.00949 µM
[2] = second compound 0.01 µM, first compound 0.03 µM
[3] = second compound 0.01 µM, first compound 0.0949 µM
[4] = second compound 0.01 µM, first compound 0.3 µM
[5] = second compound 0.0316 µM, first compound 0.00949 µM
[6] = second compound 0.0316 µM, first compound 0.03 µM
[7] = second compound 0.0316 µM, first compound 0.0949 µM
[8] = second compound 0.0316 µM, first compound 0.3 µM
[9] = second compound 0.1 µM, first compound 0.00949 µM
[10] = second compound 0.1 µM, first compound 0.03 µM
[11] = second compound 0.1 µM, first compound 0.0949 µM
[12] = second compound 0.1 µM, first compound 0.3 µM
[13] = second compound 0.316 µM, first compound 0.00949 µM
[14] = second compound 0.316 µM, first compound 0.03 µM
[15] = second compound 0.316 µM, first compound 0.0949 µM
[16] = second compound 0.316 µM, first compound 0.3 µM
[17] = second compound 1 µM, first compound 0.00949 µM
[18] = second compound 1 µM, first compound 0.03 µM
[19] = second compound 1 µM, first compound 0.0949 µM
[20] = second compound 1 µM, first compound 0.3 µM
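Also: spheroids exposed to compounds for seven days.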
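For viability, T/C in this document: 100% = DMSO vehicle control viability.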

SMILES | IC50 (second compound 0.01 µM) [nM] | IC50 (second compound 0.0316 µM) [nM] | IC50 (second compound 0.1 µM) [nM] | IC50 (second compound 0.316 µM) [nM] | IC50 (second compound 1 µM) [nM] | viability, T/C [1] [%] | viability, T/C [2] [%] | viability, T/C [3] [%] | viability, T/C [4] [%] | viability, T/C [5] [%] | viability, T/C [6] [%] | viability, T/C [7] [%] | viability, T/C [8] [%] | viability, T/C [9] [%] | viability, T/C [10] [%] | viability, T/C [11] [%] | viability, T/C [12] [%] | viability, T/C [13] [%] | viability, T/C [14] [%] | viability, T/C [15] [%] | further results
CC(=O)c1c(C)c2cnc(Nc3ccc(N4CCNCC4)cn3)nc2n(C2CCCC2)c1=O + CCN1CCN(Cc2ccc(Nc3ncc(F)c(-c4cc(F)c5nc(C)n(C(C)C)c5c4)n3)nc2)CC1 | > 300 | > 300 | > 300 | > 300 | > 300 | 88.1 | 92.5 | 93.4 | 86.6 | 79.7 | 89 | 88.3 | 81.8 | 85.1 | 88.7 | 82 | 75 | 85.3 | 79.7 | 87.6 | viability, T/C (second compound 0.01 µM, first compound 0.000949 µM): 97.9%; viability, T/C (second compound 0.01 µM, first compound 0.003 µM): 91.1%; viability, T/C (second compound 0.0316 µM, first compound 0.000949 µM): 91.2%; viability, T/C (second compound 0.0316 µM, first compound 0.003 µM): 89.5%; viability, T/C (second compound 0.1 µM, first compound 0.000949 µM): 84.6%; viability, T/C (second compound 0.1 µM, first compound 0.003 µM): 91.5%; viability, T/C (second compound 0.316 µM, first compound 0.000949 µM): 93.6%; viability, T/C (second compound 0.316 µM, first compound 0.003 µM): 86.6%; viability, T/C [16]: 79.7%; viability, T/C (second compound 1 µM, first compound 0.000949 µM): 99.4%; viability, T/C (second compound 1 µM, first compound 0.003 µM): 102%; viability, T/C [17]: 93.3%; viability, T/C [18]: 88.6%; viability, T/C [19]: 92.6%; viability, T/C [20]: 84.7%
CC(C)(C)c1cnc(CSc2cnc(NC(=O)C3CCNCC3)s2)o1 + CCN1CCN(Cc2ccc(Nc3ncc(F)c(-c4cc(F)c5nc(C)n(C(C)C)c5c4)n3)nc2)CC1 | 145 | 124 | 120 | 99.5 | 67.7 | 107 | 109 | 79 | 0.85 | 96.7 | 103 | 64.9 | 0.68 | 91.6 | 91.3 | 62.4 | 0.43 | 92.9 | 96.5 | 52.1 | viability, T/C (second compound 0.01 µM, first compound 0.949 µM): 0.5%; viability, T/C (second compound 0.01 µM, first compound 3 µM): 0.66%; viability, T/C (second compound 0.0316 µM, first compound 0.949 µM): 0.35%; viability, T/C (second compound 0.0316 µM, first compound 3 µM): 0.65%; viability, T/C (second compound 0.1 µM, first compound 0.949 µM): 0.5%; viability, T/C (second compound 0.1 µM, first compound 3 µM): 0.5%; viability, T/C [16]: 0.57%; viability, T/C (second compound 0.316 µM, first compound 0.949 µM): 0.45%; viability, T/C (second compound 0.316 µM, first compound 3 µM): 0.7%; viability, T/C [17]: 88.7%; viability, T/C [18]: 94.7%; viability, T/C [19]: 32.7%; viability, T/C [20]: 0.63%; viability, T/C (second compound 1 µM, first compound 0.949 µM): 0.5%; viability, T/C (second compound 1 µM, first compound 3 µM): 0.78%

— PubChem BioAssay AID2060343 (Molecular Pharmacology Branch, DTP, NCI, 2025)
